US10456404B2, “Targeting cGMP-related phosphodiesterases to reduce cyst formation in cystic kidney disease, and related materials and methods” (Indiana University Research and Technology Corporation, priority 2015, dated 2019)
Read-outs that look alike come from different tables or passages of the source.

Columns and labels:
human PDE9 = human PDE9 (Homo sapiens, UniProt O76083); conditions: cited from earlier work
other PDEs = conditions: cited from earlier work
PDE5 = PDE5 (Homo sapiens, UniProt O76074); conditions: cited from earlier work
cGMP = conditions: in vivo; cited from earlier work
[1] = test system: amyloid precursor protein overexpressing transgenic mice; conditions: cited from earlier work
[2] = test system: preclinical cognition models; conditions: in vivo; cited from earlier work
PDE6 = conditions: cited from earlier work
[3] = test system: Telomerase immortalized polycystic kidney cells; assay: cyst formation by immortalized polycystic kidney cells in 3D forskolin-supplemented Matrigel culture; format: cell-based, human; conditions: for average cyst area vs vehicle sham-treated matched control: FIG. 1
[4] = test system: Telomerase immortalized polycystic kidney cells; assay: as above; format: cell-based, human
From the text: Telomerase immortalized polycystic kidney cells, as described in Herbert et al. (PLoS One (2013), 8(1): e55191; which is hereby incorporated by reference in its entirety), were used to test the effect of sildenafil citrate on renal cyst growth. Cells from polycystic kidneys removed from patients for medically indicated reasons, removed from any research program, were obtained. The cells were obtained from the pathology laboratory. Cyst tissue was microdissected from the kidneys, and cells were isolated and grown in primary culture. The cells were then immortalized using retroviral techniques well known in the art. Following confirmation of an immortal phenotype, it was established that the polycystic cyst epithelial cells formed cyst structures when grown in 3D forskolin-supplemented Matrigel culture. Immortalized polycystic kidney cells were treated with microgram dosages of sildenafil citrate of 4 μg/ml, 2 μg/ml, and 1 μg/ml. […] Matched controls were sham-treated with vehicle but no drug. […] Dosages tested were consistent with the range of serum drug levels that occur when the drug is prescribed for erectile dysfunction.

human PDE9, sequence (O76083 whole entry): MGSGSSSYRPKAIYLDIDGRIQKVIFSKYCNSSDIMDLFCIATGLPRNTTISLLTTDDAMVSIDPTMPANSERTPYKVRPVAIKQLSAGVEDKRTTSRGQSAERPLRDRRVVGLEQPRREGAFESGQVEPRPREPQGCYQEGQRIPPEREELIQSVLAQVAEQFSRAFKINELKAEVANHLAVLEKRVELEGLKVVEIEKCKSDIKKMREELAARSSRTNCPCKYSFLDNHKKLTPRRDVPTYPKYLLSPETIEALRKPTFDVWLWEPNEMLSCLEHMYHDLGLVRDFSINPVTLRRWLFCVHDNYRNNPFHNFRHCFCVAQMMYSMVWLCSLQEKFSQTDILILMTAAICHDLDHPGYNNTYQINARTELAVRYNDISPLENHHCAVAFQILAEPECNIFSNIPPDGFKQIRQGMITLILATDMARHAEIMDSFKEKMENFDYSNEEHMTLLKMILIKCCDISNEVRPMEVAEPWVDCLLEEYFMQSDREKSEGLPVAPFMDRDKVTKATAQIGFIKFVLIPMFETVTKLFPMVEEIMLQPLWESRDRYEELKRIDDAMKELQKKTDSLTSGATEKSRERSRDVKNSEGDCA

Structure (SMILES): C[C@H](Cc1nc2c(cnn2-c2ccccc2Cl)c(=O)[nH]1)C(F)(F)F [BAY 73-6691, 1-(2-chlorophenyl)-6-[(2R)-3,3,3-trifluoro-2-methylpropyl]-1,5-dihydro-4H-pyrazolo[3,4-d]pyrimidine-4-one]
- inhibition of human PDE9 activity in vitro (human PDE9): selectively inhibit
- activity against other PDEs (other PDEs): only moderate activity

Structure (SMILES): CCCc1nc(C)c2c(=O)[nH]c(-c3cc(S(=O)(=O)N4CCNCC4)ccc3OCC)nn12 [M1]
- PDE5 inhibition potency relative to the parent drug (PDE5; parent drug vardenafil): reduced potency

Structure (SMILES): C[C@@H]1CN(Cc2ncccn2)C[C@H]1c1nc2c(cnn2C2CCOCC2)c(=O)[nH]1 [PF-04447943, 6-[(3S,4S)-4-methyl-1-(pyrimidin-2-ylmethyl)pyrrolidin-3-yl]-1-(tetrahydro-2H-pyran-4-yl)-1,5-dihydro-4H-pyrazolo[3,4-d]pyrimidin-4-one]
- cGMP in brain and cerebrospinal fluid (cGMP): elevates
- decreases in dendritic spine density [1]: prevents
- memory in preclinical cognition models [2]: improves
- synaptic plasticity [2]: enhances

Structure (SMILES): CCCc1nn(C)c2c(=O)[nH]c(-c3cc(S(=O)(=O)N4CCNCC4)ccc3OCC)nc12 [UK-103,320]
- PDE5 inhibition potency relative to the parent drug (PDE5; parent drug sildenafil): approximately 50%

Structure (SMILES): CCCc1nc(C)c2c(=O)nc(-c3cc(S(=O)(=O)N4CCN(CC)CC4)ccc3OCC)[nH]n12 [Vardenafil, 2-[2-ethoxy-5-(4-ethylpiperazin-1-yl)sulfonylphenyl]-5-methyl-7-propyl-1H-imidazo[5,1-f][1,2,4]triazin-4-one]
- PDE6 inhibition (PDE6): potent PDE6 inhibitor

Structure (SMILES): CCCOc1ccccc1-c1nc2[nH][nH]nc-2c(=O)n1 [Zaprinast, 5-(2-propoxyphenyl)-2,3-dihydrotriazolo[4,5-d]pyrimidin-7-one]
- PDE6 versus PDE5 inhibition potency (PDE6): inhibit PDE6 more potently than PDE5

Structure (SMILES): CCCc1nn(C)c2c(=O)[nH]c(-c3cc(S(=O)(=O)N4CCN(C)CC4)ccc3OCC)nc12.O=C(O)CC(O)(CC(=O)O)C(=O)O [sildenafil citrate, 1-[[3-(6,7-dihydro-1-methyl-7-oxo-3-propyl-1H-pyrazolo[4,3-d]pyrimidin-5-yl)-4-ethoxyphenyl]sulfonyl]-4-methylpiperazine citrate]
- average cyst area vs vehicle sham-treated matched control ([3]; 250 ng/ml, p<1.05 E−8): significantly reduced
- average cyst area vs vehicle sham-treated matched control ([3]; 500 ng/ml, p<0.01): significantly reduced
- dose response of cyst area reduction ([3]; 250, 500, 1000 ng/ml): No dose response
- large cyst formation (cyst structures of greater than 150μ^2), frequency distribution ([3]; 250, 500, 1000 ng/ml, FIG. 2): completely inhibited
- Average cyst size compared to control ([4]; 1 μg/ml, p<0.01): significantly decreased
- average cyst area vs vehicle sham-treated matched control ([4]; 1000 ng/ml, p<0.01, FIG. 1): significantly reduced
- Average cyst size compared to control ([4]; 2 μg/ml, p<0.01): significantly decreased
- Average cyst size compared to control ([4]; 4 μg/ml, p<1 E−6): significantly decreased

Structure (SMILES): CCCc1nn(C)c2c(=O)[nH]c(-c3cc(S(=O)(=O)N4CCN(C)CC4)ccc3OCC)nc12 [sildenafil, 5[2-ethoxy-5-(4-methyl-1-piperazinyl-sulphonyl)phenyl]-1-methyl-3-n-propyl-1,6-dihydro-7H-pyrazolo[4,3-d]pyrimidin-7-one]
- large cysts in photographs ([4]; 1:250 dilution of drug in vehicle from a stock, FIG. 3B): No large cysts were observed
- large cysts in photographs ([4]; 1:500 dilution of drug in vehicle from a stock, FIG. 4B): No large cysts were observed
- large cysts in photographs ([4]; 1:1000 dilution of drug in vehicle from a stock, FIG. 5B): No large cysts were observed
